In the oligonucleotide strings, read from the 5' end, every base follows the letter of its sugar. An asterisk marks phosphorothioate; unmarked linkages are phosphodiester. Other units and linkages are bracketed, terminal groups are in braces. A string of capitals states the bases alone. d = 2'-deoxy (DNA)
Legend:
[1] = test system: cells; assay: Cytotoxicity assay of chemically modified miRNA triggers (CCK-8); type: cell-based; details: after transfection
Experimental: (§1) The miRNA triggers were assayed for cytotoxicity and apoptosis induction, using the CCK-8 (Cell Counting Kit-8) (Dojindo, Kumamoto, Japan) according to the manufacturer's instruction. Cells were incubated in 96-well plates (5×10^3 cells/well) at 37° C. for 24 hours under a 5% CO2 atmosphere, followed by transfection. Three days after transfection, the medium was removed. A 10-fold dilution of CCK-8 solution in DMEM was added to the cells which were then incubated at 37° C. for 2 hours. After incubation, absorbance was read at 450 nm on Tecan Infinite M200 pro microplate reader (Mnnedorf, Switzerland).
In addition, FPS HP and 2′-OMe HP, which were the most resistant to degradation in biological samples, were analyzed for cytotoxicity. In this regard, the HP in which the entire nucleotides of miRNA trigger (LP) were modified with PS (expressed as PS in Table 6 and FIG. 6), the linear probe in which the entire nucleotides of miRNA trigger (LP) were modified with 2′-O-Me (expressed as 2′O-me in Table 6 and FIG. 6), the control DNA LP (expressed as DNA in Table 6 and FIG. 6), or siRNA was transfected into cells which were then measured for cell viability using the method of Reference Example 9. The result is depicted in FIG. 6. […]

[2] = test system: bcl-xL mRNA; assay: bcl-xL mRNA expression in MDA-MB-453 cells; type: cell-based
Experimental: In the same manner as in Reference Example 4, miRNA triggers were transfected into cells. After 48 hours, total RNA was extracted using TRIzol (Thermo Fisher Scientific) according to the manufacturer's instruction. The purified RNA was treated with DNase I and then reverse transcribed in the presence of RevertAid reverse transcriptase (Thermo Fisher Scientific), with random hexamers (Thermo Fisher Scientific) serving as primers. For use in amplification of target genes, primers for target genes were added, together with the cDNA, to the SYBR Green PCR master mix (Thermo Fisher Scientific). RT-qPCR was conducted on a StepOnePlus real-time PCR system. Cq values obtained from this analysis was quantitatively analyzed based on the 2^−ΔΔC(t) method.
(§2) The selected linear miRNA triggers (bcl-xL(1)_222_222 and bcl-xL(2)_222_222) were transfected into the breast cancer cell line MDA-MB-453 to which miR-222 is not endogenous. Cell viability, and the mRNA and protein expression levels of the target gene (bcl-xL) were measured and the results are depicted in FIGS. 33a to 33c.

[3] = test system: Bcl-xL; assay: bcl-xL protein expression in MDA-MB-453 cells; type: cell-based
Experimental: miRNA triggers were transfected into cells in the same manner as in Reference Example 4. After 72 hours, the cells were collected using a cell scraper and lysed with a RIPA buffer (NaCl 150 mM, EDTA 5 mM, Tris 50 mM, NP-40 1.0%, sodium deoxycholate 0.5%, SDS 0.1%). The cell lysate was sonicated 15 times, each for 20 sec, with a halt for 30 sec every sonication. Following centrifugation at 5,000 g for 5 min, the supernatant was taken and used to extract proteins therefrom. A total of 30-40 μg of protein sample was separated in 10-15% SDS-PAGE gel and transferred onto a PVDF membrane through a semi-dry blotting system. The membrane was blocked for 1 hour in 5% skimmed milk and incubated for 2 hours with a 1,000-fold dilution of a primary antibody in, 1% skimmed milk. […] The membrane incubated with the secondary antibody was washed three times with 1×PBST for 10 min each wash, and then reacted with Clarity Western ECL Substrate (#1705061, Bio-Rad), after which images were obtained and analyzed using ChemiDoc (Bio-rad, Hercules, USA).
as §2

[4] = test system: breast cancer cell line MDA-MB-231; assay: Cell viability of MDA-MB-231 after transfection; type: cell-based; details: Example 8-1
Experimental: as §1
The seven linear miRNA triggers prepared above and the positive control siRNA(siBcl-xL) capable of binding to bcL-xL were transfected into the breast cancer cell line MDA-MB-231 in which miR-222 is overexpressed. Cell viability was measured and is depicted in FIG. 32a.
Linear miRNA triggers that could bind to miR-222 and target bcl-xL and mcl-1, respectively, were prepared and transfected alone or in combination into the breast cancer cell line MDA-MB-231. Cell viability was measured and the measurements are depicted in FIG. 34. siRNAs against Mcl-1 and Bcl-xL were used as controls. Sequences are listed in Table 23 for the linear miRNA trigger prepared above, in Tables 22 and 9 for the controls Luc-Luc-Luc and luc-222-222, respectively, and in Table 13 for the siRNAs. Every nucleotide of the triggers and the controls was chemically modified with 2′-OMe.
Linear miRNA triggers that could bind to miR-141 or let7f and target Bcl-xL or Mcl-1 were prepared and transfected alone or in combination into the breast cancer cell line MDA-MB-231 which was then measured for cell viability. […]
The hairpin miRNA triggers prepared above were transfected into MDA-MB-231 and MDA-MB-453 cells which were then measured for cell viability. […]
Hairpin miRNA triggers which could bind to miR-222 or let-7f and target mcl-1 or bcl-xL were prepared and transfected into the breast cancer cell line MDA-MB-231 which was then measured for cell viability. […]

[5] = test system: breast cancer cell line MDA-MB-453; assay: Cell viability of MDA-MB-453 after transfection; type: cell-based; details: miR-222 not endogenous
Experimental: as §1, §2

[6] = test system: GFP mRNA; assay: GFP fluorescence intensity in GFP-expressing Hela-141 cells; type: cell-based; details: trigger 30 to 60 nM, siGFP compared to siLuc
Excerpt: A GFP fluorescent protein-expressing plasmid (used in Chen L L, DeCerbo J N, Carmichael G G. 2008. Alu element-mediated gene silencing. EMBO J 27: 1694-1705) was transfected into Hela-141 cells to prepare GFP-expressing Hela-141 cells. As stated in Reference Example 1, a linear miRNA trigger (LP; GFP_141_141), which can target GFP mRNA (=complementarily bind to GFP mRNA to regulate the expression of GFP) and complementarily bind to miR-141, and siRNAs which target GFP and Luc (Luciferase), respectively, were synthesized in Bioneer Inc. Sequences of the LP and siRNAs and types and positions of chemical modifications in each sequence are listed in Table 8, below.
Above all, siLuc and siGFP were transfected into the GFP-expressing Hela-141 cells which were then measured for fluorescence intensity on an ELISA reader. […] In addition, the linear miRNA trigger (GFP(1)_141_141) was transfected into the GFP-expressing Hela-141 cells which were then measured for fluorescence intensity. The result is depicted in FIG. 8. For the transfection, the GFP plasmid and GFP_141_141 were used at a concentration of 0.5 to 1 μg/ml and 30 to 60 nM, respectively.

[7] = test system: miRNA-141 and PKR mRNA (2); assay: PAGE assay of dumbbell miRNA trigger binding to miRNA and target mRNA; details: 100 nM each, 37° C., 1 hour
Experimental: To a buffer (1×PBS buffer, +5 mM MgCl2, 137 mM NaCl, 10 mM PO4, 2.7 mM KCl, 5 mM MgCl2; pH 7.4) containing 100 nM of the dumbbell miRNA trigger (DP) prepared above, 100 nM miRNA and/or 100 nM target mRNA was added, followed by incubation at 37° C. for 1 hour. Each sample was loaded to a PAGE gel and run. The results are depicted in FIG. 39b.

2′-O-Me: linear probe with entire nucleotides modified with 2′-O-Me, Table 6; SEQ ID NO 38 (UCGAAGUACUCAGCGUAAGUUCGAAGUACUCAGCGUAAGUUCGAAGUACUCAGCGUAAGU; all 2'-O-methyl, backbone not given here)
cell viability versus non-transfected negative control (in words) [1]: not significantly different in viability from the negative control

PS: miRNA trigger of random sequence with entire nucleotides PS-modified, Table 6; SEQ ID NO 37 (dT*dC*dG*dA*dA*dG*dT*dA*dC*dT*dC*dA*dG*dC*dG*dT*dA*dA*dG*dT*dT*dC*dG*dA*dA*dG*dT*dA*dC*dT*dC*dA*dG*dC*dG*dT*dA*dA*dG*dT*dT*dC*dG*dA*dA*dG*dT*dA*dC*dT*dC*dA*dG*dC*dG*dT*dA*dA*dG*dT)
cell viability [1]: less than 40%

bcl-xL(2)_222_222: linear miRNA trigger binding miR-222 and knocking down bcl-xL; SEQ ID NO 107 (ACCCAGUAGCCAGAUGUAGCUACCCAGUAGCCAGAUGUAGCUUACCUGCCAGCCUCCUU; all 2'-O-methyl, backbone not given here)
mRNA expression level of target bcl-xL [2]: did not significantly change | protein expression level of target bcl-xL [3]: did not significantly change | killing of breast cancer cells (cell viability) [4]: effectively kill breast cancer cells | cell viability [5]: did not significantly change

siGFP: siRNA which targets GFP; SEQ ID NO 44 (UUAUGUUUCAGGUUCAGGG; unmodified RNA) [reference compound]
GFP fluorescence intensity [6]: significantly reduced fluorescence intensity

B1: GFP(1)_141_141: linear miRNA trigger targeting GFP mRNA and binding miR-141; SEQ ID NO 41 (nucleic acid)
chain: CCAUCUUUACCUCACAGUGUUACCAUCUUUACCUCACAGUGUUAUUAUGUUUCAGGUUCAGGGGGA
modifications: all 2'-O-methyl, backbone not given here
GFP fluorescence intensity [6]: reduced GFP fluorescence intensity in a dose-dependent manner

B2: DB_PKRS20_141: dumbbell-shaped miRNA trigger, 20-nt mRNA-binding portion, binds miRNA-141 and PKR mRNA; SEQ ID NO 130 (nucleic acid)
chain: CCCCCCGAATGAGAAATACCATCTTTACCAGACAGTGTTATATTTCTCATTCCCTTCCTTNNAAGGAAGGGGGGGG
modifications: listed as DNA, chemistry not given here
binding to target mRNA in the absence of the miRNA ([7]; lane 3): did not bind to a target mRNA | binding to miRNA and/or target mRNA in the presence of the miRNA ([7]; lanes 2 and 4): could bind to a miRNA and/or target mRNA only in the presence of the miRNA

B3: bcl-xL(1)_222_222: linear miRNA trigger binding miR-222 and knocking down bcl-xL; SEQ ID NO 106 (nucleic acid)
chain: ACCCAGUAGCCAGAUGUAGCUACCCAGUAGCCAGAUGUAGCUUCUCCUUCCUGCCCUUCCU
modifications: all 2'-O-methyl, backbone not given here
mRNA expression level of target bcl-xL [2]: did not significantly change | protein expression level of target bcl-xL [3]: did not significantly change | killing of breast cancer cells (cell viability) [4]: effectively kill breast cancer cells | cell viability [5]: did not significantly change

Source: patent US20230129651A1, “HAIRPIN STRUCTURE NUCLEIC ACID MOLECULES CAPABLE OF MODULATING TARGET GENE EXPRESSION AND USES THEREOF” (KOREA ADVANCED INSTITUTE OF SCIENCE AND TECHNOLOGY, priority 2021, published 2023)
